{"source": "patent US20090018134A1", "about": "“Compounds - 945” (AstraZeneca AB, priority 2007, published 2009)", "molecular_target": "T1, mTOR (Homo sapiens, UniProt P42345)", "T1 construct": "FLAG; made in house", "T1 sequence (P42345 1362-2549)": "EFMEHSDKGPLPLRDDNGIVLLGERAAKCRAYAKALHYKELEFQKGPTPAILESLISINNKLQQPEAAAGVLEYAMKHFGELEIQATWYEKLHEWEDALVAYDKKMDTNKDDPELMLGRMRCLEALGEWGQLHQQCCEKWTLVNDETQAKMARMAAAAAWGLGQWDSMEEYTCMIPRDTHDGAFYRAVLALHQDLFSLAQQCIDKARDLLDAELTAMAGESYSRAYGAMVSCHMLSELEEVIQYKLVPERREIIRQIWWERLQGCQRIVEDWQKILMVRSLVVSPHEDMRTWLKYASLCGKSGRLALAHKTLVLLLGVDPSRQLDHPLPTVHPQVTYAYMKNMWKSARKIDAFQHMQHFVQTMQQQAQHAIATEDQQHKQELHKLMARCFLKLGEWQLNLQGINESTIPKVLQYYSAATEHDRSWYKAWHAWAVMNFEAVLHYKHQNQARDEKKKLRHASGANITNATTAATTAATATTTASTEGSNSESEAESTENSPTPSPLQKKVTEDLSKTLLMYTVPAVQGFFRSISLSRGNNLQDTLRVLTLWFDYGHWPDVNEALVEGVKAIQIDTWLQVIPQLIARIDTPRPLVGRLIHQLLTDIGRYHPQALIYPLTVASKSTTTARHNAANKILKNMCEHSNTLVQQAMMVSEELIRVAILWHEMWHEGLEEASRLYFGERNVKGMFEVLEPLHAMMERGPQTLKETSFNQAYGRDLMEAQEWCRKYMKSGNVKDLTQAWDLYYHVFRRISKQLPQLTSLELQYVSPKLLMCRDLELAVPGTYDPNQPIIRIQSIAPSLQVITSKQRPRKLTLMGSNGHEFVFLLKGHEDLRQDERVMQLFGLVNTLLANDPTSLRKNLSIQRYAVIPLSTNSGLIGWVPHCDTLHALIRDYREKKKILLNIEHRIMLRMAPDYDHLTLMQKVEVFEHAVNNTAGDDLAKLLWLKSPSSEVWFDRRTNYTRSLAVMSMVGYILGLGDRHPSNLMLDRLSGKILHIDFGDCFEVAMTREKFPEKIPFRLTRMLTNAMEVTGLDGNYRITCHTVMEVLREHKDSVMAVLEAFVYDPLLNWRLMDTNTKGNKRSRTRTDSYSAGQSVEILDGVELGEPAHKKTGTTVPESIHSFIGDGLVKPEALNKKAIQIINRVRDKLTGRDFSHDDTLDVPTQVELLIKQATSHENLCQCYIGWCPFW", "assay": "In Vitro mTOR Kinase Assay (Echo), Test (a)(ii)", "format": "biochemical", "procedure,_shortened": "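AlphaScreen read-out: biotinylated substrate phosphorylation was detected with anti-p70 S6K (T389) 1A5 antibody, Protein A acceptor and streptavidin donor beads after overnight dark incubation at room temperature. Enzyme was FLAG-mTOR 1362-2549 from stable HEK293 cells.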", "key": {"[1]": {"details": "read-out: mTOR Kinase Assay (Echo)"}, "[2]": {"details": "table of enzyme assay Test (a)(ii), read-out: Test (a)(ii) IC50"}}, "note": "pIC50: −log10 of the molar value. Where two headings read alike, the source gives them in different places."}
{"smiles": "C[C@H]1COCCN1c1cc(C2(S(C)(=O)=O)CCCC2)nc(-c2ccc(NC(=O)NC(C)(C)CO)cc2)n1", "note": "[Example 4f, 3-(1-hydroxy-2-methyl-propan-2-yl)-1-[4-[4-[(3S)-3-methylmorpholin-4-yl]-6-(1-methylsulfonylcyclopentyl)pyrimidin-2-yl]phenyl]urea]", "values": [{"measurement": "pIC50", "setting": "[1]", "result": 8.00}]}
{"smiles": "C[C@H]1COCCN1c1cc(C2(S(C)(=O)=O)CCCC2)nc(-c2ccc(NC(=O)NCCN(C)C)cc2)n1", "note": "[Example 4g, 3-(2-dimethylaminoethyl)-1-[4-[4-[(3S)-3-methylmorpholin-4-yl]-6-(1-methylsulfonylcyclopentyl)pyrimidin-2-yl]phenyl]urea]", "values": [{"measurement": "pIC50", "setting": "[1]", "result": 7.20}]}
{"smiles": "CCCNC(=O)Nc1ccc(-c2nc(N3CCOC[C@@H]3C)cc(C3(S(C)(=O)=O)CCCC3)n2)cc1", "note": "[Example 4h, 1-[4-[4-[(3S)-3-methylmorpholin-4-yl]-6-(1-methylsulfonylcyclopentyl)pyrimidin-2-yl]phenyl]-3-propyl-urea]", "values": [{"measurement": "pIC50", "setting": "[1]", "result": 8.80}, {"measurement": "pIC50", "setting": "[2]", "result": 8.84}]}
{"smiles": "CC(C)CNC(=O)Nc1ccc(-c2nc(N3CCOC[C@@H]3C)cc(C3(S(C)(=O)=O)CCCC3)n2)cc1", "note": "[Example 4i, 1-[4-[4-[(3S)-3-methylmorpholin-4-yl]-6-(1-methylsulfonylcyclopentyl)pyrimidin-2-yl]phenyl]-3-(2-methylpropyl)urea]", "values": [{"measurement": "pIC50", "setting": "[1]", "result": 7.94}]}
{"smiles": "C[C@H]1COCCN1c1cc(C2(S(C)(=O)=O)CCCC2)nc(-c2ccc(NC(=O)NCCCO)cc2)n1", "note": "[Example 4j, 3-(3-hydroxypropyl)-1-[4-[4-[(3S)-3-methylmorpholin-4-yl]-6-(1-methylsulfonylcyclopentyl)pyrimidin-2-yl]phenyl]urea]", "values": [{"measurement": "pIC50", "setting": "[1]", "result": 8.34}, {"measurement": "pIC50", "setting": "[2]", "result": 8.42}]}
{"smiles": "C[C@H]1COCCN1c1cc(C2(S(C)(=O)=O)CCCC2)nc(-c2ccc(NC(=O)Nc3ccc(C(F)(F)F)cc3)cc2)n1", "note": "[Example 4k, 1-[4-[4-[(3S)-3-methylmorpholin-4-yl]-6-(1-methylsulfonylcyclopentyl)pyrimidin-2-yl]phenyl]-3-[4-(trifluoromethyl)phenyl]urea]", "values": [{"measurement": "pIC50", "setting": "[1]", "result": 8.04}]}
{"smiles": "C[C@H]1COCCN1c1cc(C2(S(C)(=O)=O)CCCC2)nc(-c2ccc(NC(=O)Nc3ccccn3)cc2)n1", "note": "[Example 4l, 1-[4-[4-[(3S)-3-methylmorpholin-4-yl]-6-(1-methylsulfonylcyclopentyl)pyrimidin-2-yl]phenyl]-3-pyridin-2-yl-urea]", "values": [{"measurement": "pIC50", "setting": "[1]", "result": 8.43}]}
{"smiles": "C[C@H]1COCCN1c1cc(C2(S(C)(=O)=O)CCCC2)nc(-c2ccc(NC(=O)Nc3cnn(C)c3)cc2)n1", "note": "[Example 4m, 1-[4-[4-[(3S)-3-methylmorpholin-4-yl]-6-(1-methylsulfonylcyclopentyl)pyrimidin-2-yl]phenyl]-3-(1-methylpyrazol-4-yl)urea]", "values": [{"measurement": "pIC50", "setting": "[1]", "result": 8.61}]}
{"smiles": "C[C@H]1COCCN1c1cc(C2(S(C)(=O)=O)CCCC2)nc(-c2ccc(NC(=O)NCc3ncc[nH]3)cc2)n1", "note": "[Example 4n, 3-(1H-imidazol-2-ylmethyl)-1-[4-[4-[(3S)-3-methylmorpholin-4-yl]-6-(1-methylsulfonylcyclopentyl)pyrimidin-2-yl]phenyl]urea]", "values": [{"measurement": "pIC50", "setting": "[1]", "result": 7.41}]}
{"smiles": "CNC(=O)Nc1ccc(-c2nc(N3CCOC[C@@H]3C)cc(C3(S(C)(=O)=O)CCC3)n2)cc1", "note": "[Example 5, 3-Methyl-1-[4-[4-[(3S)-3-methylmorpholin-4-yl]-6-(1-methylsulfonylcyclobutyl)pyrimidin-2-yl]phenyl]urea]", "values": [{"measurement": "pIC50", "setting": "[1]", "result": 9.10}]}
{"smiles": "CCNC(=O)Nc1ccc(-c2nc(N3CCOC[C@@H]3C)cc(C3(S(C)(=O)=O)CCC3)n2)cc1", "note": "[Example 5a, 3-ethyl-1-[4-[4-[(3S)-3-methylmorpholin-4-yl]-6-(1-methylsulfonylcyclobutyl)pyrimidin-2-yl]phenyl]urea]", "values": [{"measurement": "pIC50", "setting": "[1]", "result": 9.54}]}
{"smiles": "CC(C)NC(=O)Nc1ccc(-c2nc(N3CCOC[C@@H]3C)cc(C3(S(C)(=O)=O)CCC3)n2)cc1", "note": "[Example 5c, 1-[4-[4-[(3S)-3-methylmorpholin-4-yl]-6-(1-methylsulfonylcyclobutyl)pyrimidin-2-yl]phenyl]-3-propan-2-yl-urea]", "values": [{"measurement": "pIC50", "setting": "[1]", "result": 8.17}]}
{"smiles": "C[C@H]1COCCN1c1cc(C2(S(C)(=O)=O)CCC2)nc(-c2ccc(NC(=O)NC3CCC3)cc2)n1", "note": "[Example 5d, 3-cyclobutyl-1-[4-[4-[(3S)-3-methylmorpholin-4-yl]-6-(1-methylsulfonylcyclobutyl)pyrimidin-2-yl]phenyl]urea]", "values": [{"measurement": "pIC50", "setting": "[1]", "result": 8.41}, {"measurement": "pIC50", "setting": "[2]", "result": 8.56}]}
{"smiles": "C[C@H]1COCCN1c1cc(C2(S(C)(=O)=O)CCC2)nc(-c2ccc(NC(=O)NC(C)(C)CO)cc2)n1", "note": "[Example 5f, 3-(1-hydroxy-2-methyl-propan-2-yl)-1-[4-[4-[(3S)-3-methylmorpholin-4-yl]-6-(1-methylsulfonylcyclobutyl)pyrimidin-2-yl]phenyl]urea]", "values": [{"measurement": "pIC50", "setting": "[1]", "result": 8.13}, {"measurement": "pIC50", "setting": "[2]", "result": 8.31}]}
{"smiles": "C[C@H]1COCCN1c1cc(C2(S(C)(=O)=O)CCC2)nc(-c2ccc(NC(=O)NCCN(C)C)cc2)n1", "note": "[Example 5g, 3-(2-dimethylaminomethyl)-1-[4-[4-[(3S)-3-methylmorpholin-4-yl]-6-(1-methylsulfonylcyclobutyl)pyrimidin-2-yl]phenyl]urea]", "values": [{"measurement": "pIC50", "setting": "[1]", "result": 7.18}]}
{"smiles": "CCCNC(=O)Nc1ccc(-c2nc(N3CCOC[C@@H]3C)cc(C3(S(C)(=O)=O)CCC3)n2)cc1", "note": "[Example 5h, 1-[4-[4-[(3S)-3-methylmorpholin-4-yl]-6-(1-methylsulfonylcyclobutyl)pyrimidin-2-yl]phenyl]-3-propyl-urea]", "values": [{"measurement": "pIC50", "setting": "[1]", "result": 8.63}]}
{"smiles": "CC(C)CNC(=O)Nc1ccc(-c2nc(N3CCOC[C@@H]3C)cc(C3(S(C)(=O)=O)CCC3)n2)cc1", "note": "[Example 5i, 1-[4-[4-[(3S)-3-methylmorpholin-4-yl]-6-(1-methylsulfonylcyclobutyl)pyrimidin-2-yl]phenyl]-3-(2-methylpropyl)urea]", "values": [{"measurement": "pIC50", "setting": "[1]", "result": 8.01}]}
{"smiles": "C[C@H]1COCCN1c1cc(C2(S(C)(=O)=O)CCC2)nc(-c2ccc(NC(=O)NCCCO)cc2)n1", "note": "[Example 5j, 3-(3-hydroxypropyl)-1-[4-[4-[(3S)-3-methylmorpholin-4-yl]-6-(1-methylsulfonylcyclobutyl)pyrimidin-2-yl]phenyl]urea]", "values": [{"measurement": "pIC50", "setting": "[1]", "result": 9.62}, {"measurement": "pIC50", "setting": "[2]", "result": 9.76}]}
{"smiles": "C[C@H]1COCCN1c1cc(C2(S(C)(=O)=O)CCC2)nc(-c2ccc(NC(=O)Nc3ccc(C(F)(F)F)cc3)cc2)n1", "note": "[Example 5k, 1-[4-[4-[(3S)-3-methylmorpholin-4-yl]-6-(1-methylsulfonylcyclobutyl)pyrimidin-2-yl]phenyl]-3-[4-(trifluoromethyl)phenyl]urea]", "values": [{"measurement": "pIC50", "setting": "[1]", "result": 8.48}]}
{"smiles": "C[C@H]1COCCN1c1cc(C2(S(C)(=O)=O)CCC2)nc(-c2ccc(NC(=O)Nc3ccccn3)cc2)n1", "note": "[Example 5l, 1-[4-[4-[(3S)-3-methylmorpholin-4-yl]-6-(1-methylsulfonylcyclobutyl)pyrimidin-2-yl]phenyl]-3-pyridin-2-yl-urea]", "values": [{"measurement": "pIC50", "setting": "[1]", "result": 9.61}, {"measurement": "pIC50", "setting": "[2]", "result": 9.63}]}
{"smiles": "C[C@H]1COCCN1c1cc(C2(S(C)(=O)=O)CCC2)nc(-c2ccc(NC(=O)Nc3cnn(C)c3)cc2)n1", "note": "[Example 5m, 1-[4-[4-[(3S)-3-methylmorpholin-4-yl]-6-(1-methylsulfonylcyclobutyl)pyrimidin-2-yl]phenyl]-3-(1-methylpyrazol-4-yl)urea]", "values": [{"measurement": "pIC50", "setting": "[1]", "result": 9.16}, {"measurement": "pIC50", "setting": "[2]", "result": 9.22}]}
{"smiles": "C[C@H]1COCCN1c1cc(C2(S(C)(=O)=O)CCC2)nc(-c2ccc(NC(=O)NCc3ncc[nH]3)cc2)n1", "note": "[Example 5n, 3-(1H-imidazol-2-ylmethyl)-1-[4-[4-[(3S)-3-methylmorpholin-4-yl]-6-(1-methylsulfonylcyclobutyl)pyrimidin-2-yl]phenyl]urea]", "values": [{"measurement": "pIC50", "setting": "[1]", "result": 8.08}]}
{"smiles": "C[C@H]1COCCN1c1cc(C2(S(=O)(=O)c3ccncc3)CC2)nc(-c2ccc(NC(=O)NC3CCC3)cc2)n1", "note": "[Example 6, 3-Cyclobutyl-1-[4-[4-[(3S)-3-methylmorpholin-4-yl]-6-(1-pyridin-4-ylsulfonylcyclopropyl)pyrimidin-2-yl]phenyl]urea]", "values": [{"measurement": "pIC50", "setting": "[1]", "result": 9.00}]}
{"smiles": "C[C@H]1COCCN1c1cc(C2(S(=O)(=O)c3ccncc3)CC2)nc(-c2ccc(NC(=O)Nc3ccccn3)cc2)n1", "note": "[Example 6a, 1-[4-[4-[(3S)-3-methylmorpholin-4-yl]-6-(1-pyridin-4-ylsulfonylcyclopropyl)pyrimidin-2-yl]phenyl]-3-pyridin-2-yl-urea]", "values": [{"measurement": "pIC50", "setting": "[1]", "result": 8.53}]}
{"smiles": "CC(C)CNC(=O)Nc1ccc(-c2nc(N3CCOC[C@@H]3C)cc(C3(S(=O)(=O)c4ccncc4)CC3)n2)cc1", "note": "[Example 6b, 1-[4-[4-[(3S)-3-methylmorpholin-4-yl]-6-(1-pyridin-4-ylsulfonylcyclopropyl)pyrimidin-2-yl]phenyl]-3-(2-methylpropyl)urea]", "values": [{"measurement": "pIC50", "setting": "[1]", "result": 8.21}]}
{"smiles": "CC(C)NC(=O)Nc1ccc(-c2nc(N3CCOC[C@@H]3C)cc(C3(S(=O)(=O)c4ccncc4)CC3)n2)cc1", "note": "[Example 6c, 1-[4-[4-[(3S)-3-methylmorpholin-4-yl]-6-(1-pyridin-4-ylsulfonylcyclopropyl)pyrimidin-2-yl]phenyl]-3-propan-2-yl-urea]", "values": [{"measurement": "pIC50", "setting": "[1]", "result": 8.49}]}
{"smiles": "CCNC(=O)Nc1ccc(-c2nc(N3CCOC[C@@H]3C)cc(C3(S(=O)(=O)c4ccncc4)CC3)n2)cc1", "note": "[Example 6d, 3-ethyl-1-[4-[4-[(3S)-3-methylmorpholin-4-yl]-6-(1-pyridin-4-ylsulfonylcyclopropyl)pyrimidin-2-yl]phenyl]urea]", "values": [{"measurement": "pIC50", "setting": "[1]", "result": 9.06}]}
{"smiles": "C[C@H]1COCCN1c1cc(C2(S(=O)(=O)c3ccncc3)CC2)nc(-c2ccc(NC(=O)NCCN(C)C)cc2)n1", "note": "[Example 6e, 3-(2-dimethylaminoethyl)-1-[4-[4-[(3S)-3-methylmorpholin-4-yl]-6-(1-pyridin-4-ylsulfonylcyclopropyl)pyrimidin-2-yl]phenyl]urea]", "values": [{"measurement": "pIC50", "setting": "[1]", "result": 7.17}]}
{"smiles": "C[C@H]1COCCN1c1cc(C2(S(=O)(=O)c3ccncc3)CC2)nc(-c2ccc(NC(=O)NCCO)cc2)n1", "note": "[Example 6f, 3-(2-hydroxyethyl)-1-[4-[4-[(3S)-3-methylmorpholin-4-yl]-6-(1-pyridin-4-ylsulfonylcyclopropyl)pyrimidin-2-yl]phenyl]urea]", "values": [{"measurement": "pIC50", "setting": "[1]", "result": 9.10}]}
{"smiles": "CCCNC(=O)Nc1ccc(-c2nc(N3CCOC[C@@H]3C)cc(C3(S(=O)(=O)c4ccncc4)CC3)n2)cc1", "note": "[Example 6g, 1-[4-[4-[(3S)-3-methylmorpholin-4-yl]-6-(1-pyridin-4-ylsulfonylcyclopropyl)pyrimidin-2-yl]phenyl]-3-propyl-urea]", "values": [{"measurement": "pIC50", "setting": "[1]", "result": 8.65}]}
